Test results published in patent US8389019B2, “Method for improving the quality of meat by reducing boar taint” (priority 2007, dated 2013).
Marks after values point to notes of the source that are not given here.

What was measured:
testes of a male pig = assay: Example 3: pattern of testicular shrinkage after intratesticular injection in male pig; type: in vivo; conditions: 1 ml of 10% by weight solution per testis
male Beagle puppies = assay: Example 5: exposure of treated dogs to females in heat (copulation, pregnancy); type: in vivo, Beagle dog; conditions: for number of the ten dogs that copulated with females: each dog exposed to three females in heat
Source text: (§1) Forty (40) healthy, male Beagle puppies, six months of age, were divided into the following four groups according to testicular width.
Of the ten control placebo dogs, seven copulated with females and pregnancy occurred in all of the females (100% pregnancy rate). Each of the treated dogs was exposed to three different females in heat.

[1] = system: testes of sexually mature male dogs; assay: Example 7: semen evaluation of 53 sexually mature male dogs; type: in vivo, dog; conditions: six months post-injection, one of 53 dogs
Method: Dosage was based on testicular width according to the following table.
Semen analysis of all dogs prior to injection indicated normal fertility parameters. All of the dogs were followed for six months post-injection, and semen analysis was performed at 2 month intervals for a total of three times.

[2] = system: testes of male Beagle puppies; assay: Example 5: quantitative evaluation of testis histopathology; type: in vivo, Beagle dog; conditions: n = 10
Method: as §1
Quantitative information provides the strongest evidence that control and treated tissues are either alike or different. In order to obtain the very detailed information about the testes after dorsal cranial injection, quantitative evaluation of the testes histopathology was performed in 40 dogs post-injection.

testes of male puppies = assay: Example 6: clinical trial in 225 male puppies at five sites, semen analysis and physical examination; type: in vivo, dog
Method: Four hundred fifty (450) intratesticular injections were performed in the dorsal cranial area of the testes of 225 male puppies (one injection per testis; two testes per dog) at five investigational sites. The 225 puppies ranged in age from 2½ to 10 months and were of various breeds. After the necessary training, all of the investigators mastered the technique of testicular measurement and intratesticular injection (dorsal cranial). Based on the experience of these investigators in the clinical trial, all veterinarians will be able to easily use this dorsal cranial injection technique.
After at least 6 months of follow-up, semen analysis and physical examination were performed as the primary indicators of clinical trial efficacy.

[3] = system: testes of Sprague Dawley male rats; assay: Example 4: infertility/sterility in rats, dorsal cranial vs midline injection, histopathology of epididymides and testes; type: in vivo, rat; conditions: 0.1 ml 10% per testis; for infertility/sterility achieved, share of rats: two months post-injection, 10 rats
Method: Twenty (20) Sprague Dawley, male rats were divided into two groups of ten (10) rats per group. […] Two months post-injection, both groups were sacrificed, and all of the epididymides and testes were evaluated by histopathology.

[4] = Example 5: body homeostasis, clinical observations and testicular measurement in Beagle puppies; type: in vivo, Beagle dog; conditions: 25, 30 or 35 mg per testis
Method: as §1
The body weight of all dogs increased.
(§2) As compared to the control placebo group, serum testosterone level at twelve (12) months post-injection had (1) decreased by 43% in the 25 mg treated group, (2) decreased by 55% in the 30 mg treated group, and (3) decreased by 52% in the 35 mg treated group.

[5] = system: testes of male Beagle puppies; assay: Example 5: semen analysis of Beagle puppies; type: in vivo, Beagle dog
Method: as §1
Semen analysis was performed on a monthly basis for […]. Semen analysis at 24 months post-injection indicated the following.

testis = assay: Example 2: beagle puppy injected in each testis, testes excised at 30 months; type: in vivo, beagle dog; conditions: 0.25 ml per testis (13.1 mg/ml zinc), dorsal cranial, injected at six months, sacrificed at 30 months; control 6.8 g
Method: A beagle puppy weighing 19 lbs at six months of age was injected in each testis with 0.25 ml of a chemical sterilant containing 13.1 mg/ml of zinc as zinc gluconate neutralized by 34.8 mg/ml of l-arginine with the pH adjusted to 7.0 with hydrochloric acid. The injection was into the dorsal cranial portion of the testis as could best be estimated externally.
The treated animal was sacrificed at 30 months of age when he weighed 31 lbs. The testes were excised and each weighed 3.5 g.
A control beagle weighing 18 lbs at six months was housed with the treated animal. This animal was also sacrificed at 30 months. The control dog weighed 30 lbs and each testis weighed 6.8 g. A histological section of the rete testis of the control animal was taken and a light micrograph of the section at 10× is shown in FIG. 2.

serum testosterone = assay: Example 5: serum testosterone level in Beagle puppies; type: in vivo, Beagle dog; conditions: twelve months post-injection
Method: as §1, §2

[6] = Total of all six doses, n = 225
[7] = dorsal cranial injection, two months
[8] = 25 mg per testis, 24 months post-injection, n = 10
[9] = 25 mg per testis, the 10% of dogs with severe oligospermia, 24 months

## N=C(N)NCCC[C@H](N)C(=O)O.[Zn] [zinc arginine]
Testes of a male pig; injection at the dorsal cranial area (FIG. 5)
  pattern of testicular shrinkage: proportional shrinkage
Testes of a male pig; injection at the midline (FIG. 4)
  pattern of testicular shrinkage: disproportional shrinkage

## zinc gluconate neutralized by arginine
Male Beagle puppies; 25 mg per testis
  number of the ten dogs that copulated with females: Two
Male Beagle puppies; 30 mg per testis
  number of the ten dogs that copulated with females: five
Male Beagle puppies; 35 mg per testis
  number of the ten dogs that copulated with females: four
Male Beagle puppies; 25, 30 and 35 mg per testis, control placebo 100% pregnancy rate
  pregnancy of females after copulation: no pregnancy occurred
[1]
  Sperm Concentration of the dog that stayed normal: Normal 70 million/ml
[2]; 25 mg per testis
  Basement Membrane, Average: 4.80 μm
  Basement Membrane, Left: 5.00 μm
  Basement Membrane, Right: 4.59 μm
  Diameter of Seminiferous Tubule, Average: 124.00 μm
  Diameter of Seminiferous Tubule, Left: 116.0 μm
  Diameter of Seminiferous Tubule, Right: 132.0 μm
  Height of Germinal Epithelium, Average: 14.10 μm
  Height of Germinal Epithelium, Left: 11.8 μm
  Height of Germinal Epithelium, Right: 16.4 μm
[2]; 30 mg per testis
  Basement Membrane, Average: 5.53 μm
  Basement Membrane, Left: 5.50 μm
  Basement Membrane, Right: 5.57 μm
  Diameter of Seminiferous Tubule, Average: 113.75 μm
  Diameter of Seminiferous Tubule, Left: 115.1 μm
  Diameter of Seminiferous Tubule, Right: 112.4 μm
  Height of Germinal Epithelium, Average: 7.20 μm
  Height of Germinal Epithelium, Left: 5.5 μm
  Height of Germinal Epithelium, Right: 8.9 μm
[2]; 35 mg per testis
  Basement Membrane, Average: 6.00 μm
  Basement Membrane, Left: 6.04 μm
  Basement Membrane, Right: 5.96 μm
  Diameter of Seminiferous Tubule, Average: 124.05 μm
  Diameter of Seminiferous Tubule, Left: 124.8 μm
  Diameter of Seminiferous Tubule, Right: 123.3 μm
  Height of Germinal Epithelium, Average: 10.30 μm
  Height of Germinal Epithelium, Left: 9.6 μm
  Height of Germinal Epithelium, Right: 11.0 μm
Testes of male puppies; [6]
  Aspermia (No Semen Ejaculated), number of puppies: 174
  Azoospermia (No Sperm in Ejaculate), number of puppies: 48
  Necrospermia (Sperm in Ejaculate Are Dead or Motionless), number of puppies: 1
  Oligospermia (Less than 20 Million Sperm per ml), number of puppies: 1
  Sperm in Ejaculate Are Motile, number of puppies: 1
Testes of male puppies; dose per testis 0.2 ml
  Aspermia (No Semen Ejaculated), number of puppies: 59
  Azoospermia (No Sperm in Ejaculate), number of puppies: 12
  Necrospermia (Sperm in Ejaculate Are Dead or Motionless), number of puppies: 0
  Oligospermia (Less than 20 Million Sperm per ml), number of puppies: 1
  Sperm in Ejaculate Are Motile, number of puppies: 0
Testes of male puppies; dose per testis 0.3 ml
  Aspermia (No Semen Ejaculated), number of puppies: 27
  Azoospermia (No Sperm in Ejaculate), number of puppies: 5
  Necrospermia (Sperm in Ejaculate Are Dead or Motionless), number of puppies: 0
  Oligospermia (Less than 20 Million Sperm per ml), number of puppies: 0
  Sperm in Ejaculate Are Motile, number of puppies: 0
Testes of male puppies; dose per testis 0.5 ml
  Aspermia (No Semen Ejaculated), number of puppies: 21
  Azoospermia (No Sperm in Ejaculate), number of puppies: 7
  Necrospermia (Sperm in Ejaculate Are Dead or Motionless), number of puppies: 0
  Oligospermia (Less than 20 Million Sperm per ml), number of puppies: 0
  Sperm in Ejaculate Are Motile, number of puppies: 1*
Testes of male puppies; dose per testis 0.7 ml
  Aspermia (No Semen Ejaculated), number of puppies: 30
  Azoospermia (No Sperm in Ejaculate), number of puppies: 4
  Necrospermia (Sperm in Ejaculate Are Dead or Motionless), number of puppies: 0
  Oligospermia (Less than 20 Million Sperm per ml), number of puppies: 0
  Sperm in Ejaculate Are Motile, number of puppies: 0
Testes of male puppies; dose per testis 0.8 ml
  Aspermia (No Semen Ejaculated), number of puppies: 19
  Azoospermia (No Sperm in Ejaculate), number of puppies: 4
  Necrospermia (Sperm in Ejaculate Are Dead or Motionless), number of puppies: 1
  Oligospermia (Less than 20 Million Sperm per ml), number of puppies: 0
  Sperm in Ejaculate Are Motile, number of puppies: 0
Testes of male puppies; dose per testis 1.0 ml
  Aspermia (No Semen Ejaculated), number of puppies: 18
  Azoospermia (No Sperm in Ejaculate), number of puppies: 16
  Necrospermia (Sperm in Ejaculate Are Dead or Motionless), number of puppies: 0
  Oligospermia (Less than 20 Million Sperm per ml), number of puppies: 0
  Sperm in Ejaculate Are Motile, number of puppies: 0
Testes of male puppies; six different doses, 225 puppies, at least 6 months of follow-up
  efficacy (infertility/sterility): 99.6%
Testes of male puppies; six different doses, dorsal cranial, at least 6 months of follow-up
  number of puppies (of 225) in which infertility/sterility was achieved: 224
[3]; [7]
  function of the testes (histopathology): complete dysfunction in the testes
  sperm in the epididymides: no sperm were found in the epididymides
[3]; dorsal cranial injection
  infertility/sterility achieved, share of rats: 100%
[3]; midline injection, two months
  function of the testes (histopathology): some parts of the testes were functioning
  share of epididymides in which sperm were found: 30%
[3]; midline injection
  infertility/sterility achieved, share of rats: 70%
[4]
  effect on rectal temperature, complete blood count, blood chemistries: no clinical effect
[4]; all dogs
  body weight: increased
[4]; dorsal cranial
  effect on body homeostasis: None of the treatments affected body homeostasis
[4]; for one week post-injection
  testicular swelling post-injection: transient testicular swelling
[4]; p<0.0001, control placebo increased
  testicular measurement after the first week: decreased significantly
[5]; [8]
  share of dogs permanently sterilized (azoospermia or aspermia): 90%
  share of dogs with severe oligospermia: 10%
[5]; [9]
  Concentration/ml (×10^6): 0.01 ×10^6/ml
  Motility: 1.00%
  Normal Sperm: 6.70%
  Volume of Ejaculation: 0.74 mL
[5]; 30 mg per testis, 24 months post-injection, n = 10
  share of dogs permanently sterilized (azoospermia or aspermia): 100%
[5]; 35 mg per testis, 24 months post-injection, n = 10
  share of dogs permanently sterilized (azoospermia or aspermia): 100%
[5]; dorsal cranial area, male puppies
  overall outcome of one intratesticular injection: permanent sterilization
testis
  weight of each excised testis: 3.5 g
Serum testosterone; 25 mg per testis
  decrease of serum testosterone level compared to control placebo: 43%
Serum testosterone; 30 mg per testis
  decrease of serum testosterone level compared to control placebo: 55%
Serum testosterone; 35 mg per testis
  decrease of serum testosterone level compared to control placebo: 52%
